ChEMBL document CHEMBL1129186, “Synthesis of new non-nucleoside inhibitors of HIV-1” (Bioorg Med Chem Lett, 1996)

What was measured:
CEM-SS [1] = test: Compound was evaluated for cytotoxicity against CEM SS cells infected with HIV-1(LAI strain).; type: functional; settings: Homo sapiens
CEM-SS [2] = test: Compound was evaluated for antiviral activity against CEM SS cells infected with HIV-1(LAI strain).; type: functional, cell-based; settings: Homo sapiens

Row | SMILES | CC50 (CEM-SS [1]) [µM] | IC50 (CEM-SS [2]) [µM]
1 | CCc1c(C)nc(Cl)c([N+](=O)[O-])c1[S+]([O-])c1cc(C)cc(C)c1 (configuration not stated) | 8 | 3
2 | CCc1c(C)nc(O)c([N+](=O)[O-])c1Sc1cc(C)cc(C)c1 | > 10 | 6
3 | Cc1cc(C)cc(Sc2cc(CCCO)nc(O)c2[N+](=O)[O-])c1 | > 1 | 8
4 | CCc1c(C)nc(Cl)c([N+](=O)[O-])c1Sc1cc(C)cc(C)c1 | > 1 | 8
5 | CC(=O)OCCCc1cc(Sc2cc(C)cc(C)c2)c([N+](=O)[O-])c(O)n1 | > 1 | 1
6 | Cc1cn([C@H]2C[C@H](N=[N+]=[N-])[C@@H](CO)O2)c(=O)[nH]c1=O [ZIDOVUDINE] | > 10 | 3
